Measurements taken from patent US11312676B2, “Small molecule stimulators of steroid receptor coactivator proteins and their use in the treatment of cancer” (BAYLOR COLLEGE OF MEDICINE, priority 2014, dated 2022).
Values belong to the compound of their own block, whether it stands above or below them. Peptide text beside a SMILES is read from it. * marks the point of attachment. Cbz = O=C(OCc1ccccc1)*; CH2F = FC*

How the values were obtained:
Type in all cases: cell-based
SRC-3 = molecular target: T1, SRC-3 (Homo sapiens, UniProt Q9Y6Q9); test: Gal4 luciferase reporter assay (pBIND-SRC-3 + pG5-LUC) in HeLa cells; details: for effect on activation of SRC-3 by MCB-613: co-treatment with MCB-613, 24 hours; for intrinsic transcriptional activity of SRC-3: 24 hours, additional paraptosis agents
T1 construct: expressed in transfected cells; host or cells: HeLa
Protocol: (§1) The constructs expressing the Gal4 responsive luciferase reporter (pG5-luc), Gal4 DBD fusion with SRC-1, […] (pBIND-SRC-1/-2/-3), MMP2 or MMP13 promoter driven luciferase reporter (MMP2-luc, MMP13-luc) were prepared. Twenty-four hours before transfection, HeLa cells were plated in 24-well dishes. The indicated expression plasmids were transfected into cells using Lipofectamine 2000 according to the manufacturer's instructions.
(§2) After various compound treatments, cells were lysed in luciferase lysis buffer and assayed for luciferase activity using the ONE-Glo luciferase assay system (Promega, Madison, Wis.). All luciferase activities were normalized to protein concentration determined by Bradford assay (Bio-Rad, Hercules, Calif.).
HeLa cells were transfected with a Gal4 responsive luciferase reporter (pG5-luc) and a construct encoding SRC-1, SRC-2 or SRC-3 fused with the DNA binding domain of Gal4 (pBIND-SRC-1, pBIND-SRC-2 or pBIND-SRC-3) were treated with the indicated compounds.

SRC-2 = molecular target: T2, SRC-2 (Homo sapiens, UniProt Q15596); test: Gal4 luciferase reporter assay (pBIND-SRC-2 + pG5-LUC) in HeLa cells; details: for intrinsic transcriptional activity of SRC-2: 24 hours, additional paraptosis agents
T2 construct: expressed in transfected cells; host or cells: HeLa
Protocol: as §1, §2

SRC-1 = SRC-1 (Homo sapiens, UniProt Q15788); test: Gal4 luciferase reporter assay (pBIND-SRC-1 + pG5-LUC) in HeLa cells; design: expressed in transfected cells; host or cells: HeLa; details: for intrinsic transcriptional activity of SRC-1: 24 hours, additional paraptosis agents
Protocol: as §1, §2

HeLa cells [1] = test: MTS cell viability assay, HeLa cells; details: HeLa cells, co-treatment with MCB-613, 24 hours
HeLa cells [2] = test: Cytoplasmic vacuolization of cancer cells; details: HeLa cells, co-treatment with MCB-613, 24 hours
[3] = system: TM4 Sertoli cells and GBM cancer cells; test: CellTiter-Glo viability, TM4 Sertoli cells versus GBM cell lines R0315 and 4687; details: 72 hours, GBM R0315 and 4687 vs TM4 Sertoli
Protocol: The effects of SYC-851 (Compound 4-8), SYC-852 (Compound 5-1), SYC-853 (Compound 5-4), and SYC-855 (Compound 7-8) on TM4 Sertoli cells and on GBM cancer cells were determined. Cells were plated as monolayer cultures and treated 24 hours later with the indicated concentration of compounds. After 72 hours, cells were harvested and assayed for viability using a CellTiter-Glo assay […]. The results for TM4 Setoli cells and for pediatric glioblastoma multiforme cell lines R0315 and 4687 and are shown in FIGS. 18A, 18B, and 18C, respectively.

HeLa cells [4] = test: Western blot of stress, UPR, autophagy and apoptosis markers in HeLa cells; details: co-treatment with MCB-613, 24 hours
Protocol: For Western blotting, cells were harvested and lysed in lysis buffer (50 mM Tris, pH 8.0, 150 mM NaCl, 10% glycerol, 0.5% NP40, protease and phosphatase inhibitor) and then centrifuged for 15 min at 14000 rpm at 4° C. After total cellular protein concentration was determined by Bradford analysis (Bio-Rad, Hercules, Calif.), protein lysates were loaded onto and resolved by sodium dodecyl sulfate-polyacrylamide gel electrophoresis (SDS-PAGE) and transferred to PVDF membranes (BioRad) which were blocked and incubated with indicated antibodies. For immunoprecipitation, 10 μg of plasmid encoding FLAG-SRC-3 was transfected into HeLa cells with 90% confluence in one 10 cm plate with lipofectamine 2000 (Invitrogen). Twenty-four hours after transfection, the cells were treated with MCB-613 for one hour and lysed with lysis buffer (25 mM Tris-Cl pH7.5, 150 mM NaCl, 5% glycerol, 1 mM EDTA, 1% Triton X-100, protease and phosphatase inhibitor) at 4° C. After a 30-second sonication, the lysate was cleared by centrifugation at 14000 rpm at 4° C. for 15 minutes and was incubated with anti-Flag-M2 agarose affinity gel (Sigma) for four hours. The agarose gel was washed four times with washing buffer (25 mM Tris pH 8.0, 150 mM NaCl, 1 mM EDTA, 1% Triton X-100) and resuspended with SDS loading buffer for Western blotting.

[5] = co-treatment with MCB-613, 24 hours

T2 sequence (Q15596 whole entry, the tested form may be a part): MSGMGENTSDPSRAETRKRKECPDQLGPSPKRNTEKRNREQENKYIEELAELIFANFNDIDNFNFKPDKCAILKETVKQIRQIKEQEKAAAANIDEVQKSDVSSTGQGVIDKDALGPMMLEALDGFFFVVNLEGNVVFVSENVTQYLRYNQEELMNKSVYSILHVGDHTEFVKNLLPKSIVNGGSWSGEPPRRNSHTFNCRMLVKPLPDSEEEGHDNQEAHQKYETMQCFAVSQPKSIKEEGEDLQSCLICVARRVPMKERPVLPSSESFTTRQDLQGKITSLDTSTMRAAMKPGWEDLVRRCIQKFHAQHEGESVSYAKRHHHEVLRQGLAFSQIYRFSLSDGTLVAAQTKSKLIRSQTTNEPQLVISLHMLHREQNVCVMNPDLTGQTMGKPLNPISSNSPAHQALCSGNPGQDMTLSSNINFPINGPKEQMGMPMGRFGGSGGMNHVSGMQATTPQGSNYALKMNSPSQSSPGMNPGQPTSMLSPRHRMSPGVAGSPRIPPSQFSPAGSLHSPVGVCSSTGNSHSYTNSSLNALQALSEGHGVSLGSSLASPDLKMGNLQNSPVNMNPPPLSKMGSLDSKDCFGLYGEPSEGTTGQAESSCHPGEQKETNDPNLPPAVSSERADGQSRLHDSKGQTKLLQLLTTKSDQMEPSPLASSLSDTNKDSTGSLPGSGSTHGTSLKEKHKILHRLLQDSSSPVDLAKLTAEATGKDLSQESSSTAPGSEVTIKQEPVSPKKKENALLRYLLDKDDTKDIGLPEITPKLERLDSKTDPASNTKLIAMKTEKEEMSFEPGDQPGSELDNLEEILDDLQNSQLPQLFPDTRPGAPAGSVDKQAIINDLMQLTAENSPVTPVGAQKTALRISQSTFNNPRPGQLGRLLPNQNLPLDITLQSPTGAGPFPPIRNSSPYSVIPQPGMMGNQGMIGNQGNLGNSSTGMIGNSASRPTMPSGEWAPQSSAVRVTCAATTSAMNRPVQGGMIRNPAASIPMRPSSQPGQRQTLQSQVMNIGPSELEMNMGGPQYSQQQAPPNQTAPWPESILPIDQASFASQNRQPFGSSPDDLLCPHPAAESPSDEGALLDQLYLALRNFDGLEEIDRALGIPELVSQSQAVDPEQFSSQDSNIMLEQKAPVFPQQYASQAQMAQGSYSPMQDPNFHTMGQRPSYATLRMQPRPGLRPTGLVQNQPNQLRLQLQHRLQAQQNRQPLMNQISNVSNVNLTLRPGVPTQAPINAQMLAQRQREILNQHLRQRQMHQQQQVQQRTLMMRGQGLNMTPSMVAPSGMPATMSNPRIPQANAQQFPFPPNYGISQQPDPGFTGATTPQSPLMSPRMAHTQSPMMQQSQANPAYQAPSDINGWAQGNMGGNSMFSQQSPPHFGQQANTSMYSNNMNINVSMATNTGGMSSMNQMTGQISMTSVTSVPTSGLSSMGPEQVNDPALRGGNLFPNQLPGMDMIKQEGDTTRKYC
T1 sequence (Q9Y6Q9 whole entry, the tested form may be a part): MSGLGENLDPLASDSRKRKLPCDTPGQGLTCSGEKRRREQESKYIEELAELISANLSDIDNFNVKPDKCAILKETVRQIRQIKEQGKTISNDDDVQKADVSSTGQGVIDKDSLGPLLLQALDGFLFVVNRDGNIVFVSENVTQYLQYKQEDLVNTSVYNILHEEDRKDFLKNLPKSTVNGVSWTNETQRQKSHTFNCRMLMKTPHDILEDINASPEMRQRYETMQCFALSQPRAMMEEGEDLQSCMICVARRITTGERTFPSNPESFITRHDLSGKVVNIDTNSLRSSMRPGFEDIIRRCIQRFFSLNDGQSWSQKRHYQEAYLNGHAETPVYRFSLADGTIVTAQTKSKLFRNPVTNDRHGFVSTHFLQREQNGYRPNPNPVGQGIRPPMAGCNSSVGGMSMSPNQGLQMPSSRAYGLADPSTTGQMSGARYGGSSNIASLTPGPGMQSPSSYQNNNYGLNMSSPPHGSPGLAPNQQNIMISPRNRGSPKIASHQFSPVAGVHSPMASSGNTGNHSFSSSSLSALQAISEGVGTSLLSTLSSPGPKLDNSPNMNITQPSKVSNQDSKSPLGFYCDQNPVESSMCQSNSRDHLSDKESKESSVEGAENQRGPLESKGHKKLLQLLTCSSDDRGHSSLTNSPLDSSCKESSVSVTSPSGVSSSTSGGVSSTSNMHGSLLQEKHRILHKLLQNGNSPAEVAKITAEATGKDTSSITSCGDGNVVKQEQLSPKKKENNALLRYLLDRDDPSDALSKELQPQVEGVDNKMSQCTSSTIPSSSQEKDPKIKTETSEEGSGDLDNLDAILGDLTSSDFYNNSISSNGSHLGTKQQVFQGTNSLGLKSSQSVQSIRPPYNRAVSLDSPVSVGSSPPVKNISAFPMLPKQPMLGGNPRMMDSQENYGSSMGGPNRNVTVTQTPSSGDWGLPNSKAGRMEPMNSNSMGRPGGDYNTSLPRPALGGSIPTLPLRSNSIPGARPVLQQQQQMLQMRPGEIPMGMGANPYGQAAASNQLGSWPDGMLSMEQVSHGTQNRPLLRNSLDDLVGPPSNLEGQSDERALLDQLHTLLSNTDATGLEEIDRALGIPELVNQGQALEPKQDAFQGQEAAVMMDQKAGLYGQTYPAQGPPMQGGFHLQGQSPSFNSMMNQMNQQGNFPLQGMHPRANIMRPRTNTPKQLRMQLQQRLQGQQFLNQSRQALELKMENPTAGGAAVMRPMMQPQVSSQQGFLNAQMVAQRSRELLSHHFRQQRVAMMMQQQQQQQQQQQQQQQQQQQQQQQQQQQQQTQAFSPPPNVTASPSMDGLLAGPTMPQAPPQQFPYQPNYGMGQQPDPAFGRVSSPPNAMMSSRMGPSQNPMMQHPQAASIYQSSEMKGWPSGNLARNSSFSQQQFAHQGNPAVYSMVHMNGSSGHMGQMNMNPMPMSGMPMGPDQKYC
Chain of SRC-1 (Q15788 whole entry, the tested form may be a part): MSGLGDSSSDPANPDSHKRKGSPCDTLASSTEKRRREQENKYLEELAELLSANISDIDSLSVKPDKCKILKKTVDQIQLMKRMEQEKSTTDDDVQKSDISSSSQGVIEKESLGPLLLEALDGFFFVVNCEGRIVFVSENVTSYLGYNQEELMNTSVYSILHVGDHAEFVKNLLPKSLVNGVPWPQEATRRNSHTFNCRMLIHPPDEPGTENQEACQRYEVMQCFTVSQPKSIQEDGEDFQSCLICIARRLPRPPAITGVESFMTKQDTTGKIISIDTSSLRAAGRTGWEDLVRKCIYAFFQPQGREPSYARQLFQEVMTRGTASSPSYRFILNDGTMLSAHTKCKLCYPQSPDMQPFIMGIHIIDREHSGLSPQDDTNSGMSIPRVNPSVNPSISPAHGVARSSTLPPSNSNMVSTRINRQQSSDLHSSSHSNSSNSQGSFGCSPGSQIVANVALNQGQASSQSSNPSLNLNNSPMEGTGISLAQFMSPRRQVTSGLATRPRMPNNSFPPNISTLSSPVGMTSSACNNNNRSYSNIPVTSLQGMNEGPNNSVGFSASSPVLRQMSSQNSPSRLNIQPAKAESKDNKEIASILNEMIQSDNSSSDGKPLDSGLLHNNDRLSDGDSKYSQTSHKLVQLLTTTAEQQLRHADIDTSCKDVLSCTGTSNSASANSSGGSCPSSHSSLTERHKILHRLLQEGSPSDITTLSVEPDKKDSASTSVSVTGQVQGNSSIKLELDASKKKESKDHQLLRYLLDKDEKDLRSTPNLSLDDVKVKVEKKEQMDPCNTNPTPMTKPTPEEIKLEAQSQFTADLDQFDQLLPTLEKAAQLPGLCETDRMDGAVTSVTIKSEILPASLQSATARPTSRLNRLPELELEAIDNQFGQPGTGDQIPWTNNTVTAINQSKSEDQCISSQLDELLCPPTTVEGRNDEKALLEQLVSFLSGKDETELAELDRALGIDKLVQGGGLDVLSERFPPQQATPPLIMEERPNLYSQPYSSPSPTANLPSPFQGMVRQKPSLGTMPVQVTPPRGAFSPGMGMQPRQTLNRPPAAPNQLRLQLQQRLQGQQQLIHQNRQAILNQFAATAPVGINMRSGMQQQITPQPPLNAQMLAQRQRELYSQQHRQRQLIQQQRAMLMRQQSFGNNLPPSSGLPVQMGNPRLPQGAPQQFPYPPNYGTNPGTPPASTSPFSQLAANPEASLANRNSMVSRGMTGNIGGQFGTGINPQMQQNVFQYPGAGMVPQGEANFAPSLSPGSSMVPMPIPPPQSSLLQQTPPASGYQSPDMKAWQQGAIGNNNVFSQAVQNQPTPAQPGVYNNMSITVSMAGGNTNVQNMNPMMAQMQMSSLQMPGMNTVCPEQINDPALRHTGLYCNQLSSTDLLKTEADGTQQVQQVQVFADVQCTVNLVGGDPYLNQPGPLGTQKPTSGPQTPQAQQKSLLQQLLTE

effect on activation of SRC-3 by MCB-613 (SRC-3): did not inhibit
SMILES: Cn1cnc(N)c2ncnc1-2 [Compound 3-MA, 3-methyladenine]

intrinsic transcriptional activity of SRC-2 (SRC-2): robustly enhance
intrinsic transcriptional activity of SRC-3 (SRC-3): robustly enhance
intrinsic transcriptional activity of SRC-1 (SRC-1): robustly enhance
SMILES: CCCCC/C=C/C=C1/C(=O)C=C[C@@H]1C/C=C\CCCC(=O)O [Compound 15d-PGJ2, 15-deoxy-Δ^12,14-prostaglandin J2]

SMILES: CC(C)C[C@@H](C=O)NC(=O)[C@H](CC(C)C)NC(=O)[C@H](CC(C)C)NC(=O)OCc1ccccc1 [MG132] (Cbz-Leu-Leu-Leu-aldehyde)
intrinsic transcriptional activity of SRC-2 (SRC-2): robustly enhance
intrinsic transcriptional activity of SRC-3 (SRC-3): robustly enhance
intrinsic transcriptional activity of SRC-1 (SRC-1): robustly enhance

effect on activation of SRC-2 by MCB-613 (SRC-2; [5]): abrogate
effect on activation of SRC-3 by MCB-613 (SRC-3): abrogate
effect on activation of SRC-1 by MCB-613 (SRC-1; [5]): abrogate
SMILES: CC(=O)N[C@@H](CS)C(=O)O [N-Acetyl cysteine]
effect on cell death caused by MCB-613 (HeLa cells [1]): protected cells from MCB-613 mediated cytotoxicity
effect on vacuolization induced by MCB-613 (HeLa cells [2]): blocked

effect on activation of SRC-3 by MCB-613 (SRC-3): significantly inhibited
SMILES: CO[C@@H](C(=O)N1Cc2n[nH]c(NC(=O)c3ccc(N4CCN(C)CC4)cc3)c2C1)c1ccccc1 [PHA 739358]

SMILES: O=C1C(=Cc2cccnc2)COCC1=Cc1cccnc1 [SYC-851]
toxicity to cancer cells compared with non-cancer cells [3]: more toxicity to cancer cells than to non-cancer cells

SRC-3 intrinsic transcriptional activity (luciferase) (SRC-3; Example 6): high intrinsic transcriptional activity
SMILES: CC(C)N1CC(=Cc2cccnc2)C(=O)C(=Cc2cccnc2)C1 [SYC-855]
toxicity to cancer cells compared with non-cancer cells [3]: more toxicity to cancer cells than to non-cancer cells

SMILES: C[C@]12CC[C@H](O)C[C@H]1CC[C@@H]1[C@@H]2CC[C@]2(C)[C@@H](c3ccc(=O)oc3)CC[C@]12O [bufalin, reference compound]
effect on vacuolization induced by MCB-613 (HeLa cells [2]): effectively inhibited
effect on induction of ER stress (ATF4) by MCB-613 (HeLa cells [4]): completely reversed

effect on activation of SRC-3 by MCB-613 (SRC-3): did not inhibit
SMILES: CCN(CC)CCCC(C)Nc1ccnc2cc(Cl)ccc12 (stereo not shown) [chloroquine]

intrinsic transcriptional activity of SRC-2 (SRC-2): robustly enhance
intrinsic transcriptional activity of SRC-3 (SRC-3): robustly enhance
intrinsic transcriptional activity of SRC-1 (SRC-1): robustly enhance
SMILES: COc1cc(/C=C/C(=O)CC(=O)/C=C/c2ccc(O)c(OC)c2)ccc1O [curcumin]

SMILES: C[C@@H]1C[C@@H]([C@H](O)CC2CC(=O)NC(=O)C2)C(=O)[C@@H](C)C1 [cycloheximide]
effect on cell death caused by MCB-613 (HeLa cells [1]): protected cells from MCB-613 mediated cytotoxicity
effect on vacuolization induced by MCB-613 (HeLa cells [2]): blocked

effect on activation of SRC-3 by MCB-613 (SRC-3): did not inhibit
SMILES: COC(=O)C[C@H](NC(=O)[C@H](C)NC(=O)[C@@H](NC(=O)OCc1ccccc1)C(C)C)C(=O)CF [z-VAD-fmk] (Cbz-Val-Ala-Asp(OMe)-CH2F)
